The source made the active and inactive calls. The calls are words filed in the database; no cut-off is given here.
Columns and labels:
[1] = biological target: T1, Tryptophan 2,3-dioxygenase (Homo sapiens, UniProt P48775); test: Inhibition of human TDO2 expressed in Escherichia coli BL21-DE3 rosetta cells at pH 6.5 potassium phosphate buffer using L-tryptophan as substrate measured after 15 mins
[2] = biological target: T1, Tryptophan 2,3-dioxygenase; test: Inhibition of human TDO2 expressed in mouse P815B cells using L-tryptophan as substrate incubated for 7 hrs by UPLC analysis; type: cell-based
[3] = biological target: T2, Indoleamine 2,3-dioxygenase 1 (Homo sapiens, UniProt P14902); test: Inhibition of human IDO1 in potassium phosphate buffer at pH 6.5 using L-tryptophan as substrate incubated for 8 mins
[4] = biological target: T2, Indoleamine 2,3-dioxygenase 1; test: Inhibition of human IDO1 expressed in mouse P815B cells using L-tryptophan as substrate incubated for 24 hrs by UPLC analysis; type: cell-based
[5] = Lipophilicity, logKw of compound in methanol and water buffer at pH 2.3 by HPLC-UV analysis; type: physicochemical
[6] = Metabolic stability in liver microsomes assessed as half life at 10 uM measured upto 24 hrs in the presence of NADPH by UPLC analysis; type: ADME, Microsome
[7] = Cytotoxicity against mouse P815B cells assessed as reduction in cell viability measured after 6 hrs by MTS assay; type: functional; details: read-out: LD50 (the source's name)
[8] = Cytotoxicity against mouse P815B cells assessed as reduction in cell viability measured after 24 hrs by MTS assay; type: functional; details: read-out: LD50 (the source's name)
A 172 [9] = test: Cytotoxicity against human A 172 cells assessed as reduction in cell viability measured after 6 hrs by MTS assay; type: functional; details: read-out: LD50 (the source's name)
A 172 [10] = test: Cytotoxicity against human A 172 cells assessed as reduction in cell viability measured after 24 hrs by MTS assay; type: functional; details: read-out: LD50 (the source's name)
[11] = Cytotoxicity against HEK293 cells assessed as reduction in cell viability measured after 6 hrs by MTS assay; type: toxicity, cell-based; details: human, read-out: LD50
[12] = Cytotoxicity against HEK293 cells assessed as reduction in cell viability measured after 24 hrs by MTS assay; type: toxicity, cell-based; details: human, read-out: LD50
P815B [13] = test: Cytotoxicity against mouse P815B cells assessed as reduction in cell viability at 30 uM measured after 24 hrs by MTS assay; type: functional, cell-based
P815B [14] = test: Induction of ROS generation in mouse P815B cells assessed as increase in H2O2 concentration at high concentration measured upto 6 hrs by bioluminescent ROS-Glo H2O2 assay; type: functional, cell-based
[15] = Induction of apoptosis in mouse P815B cells assessed as viable cells at 5 uM measured after 24 hrs by Annexin V-FITC/PI staining based flow cytometry method relative to control; type: functional; details: read-out: Activity
[16] = Induction of apoptosis in mouse P815B cells assessed as viable cells at 1 uM measured after 24 hrs by Annexin V-FITC/PI staining based flow cytometry method relative to control; type: functional; details: read-out: Activity
[17] = Induction of apoptosis in mouse P815B cells assessed as early apoptotic cells at 1 uM measured after 24 hrs by Annexin V-FITC/PI staining based flow cytometry method relative to control; type: functional
[18] = Induction of apoptosis in mouse P815B cells assessed as late apoptotic cells at 1 uM measured after 24 hrs by Annexin V-FITC/PI staining based flow cytometry method relative to control; type: functional
[19] = Induction of apoptosis in mouse P815B cells assessed as necrotic cells at 1 uM measured after 24 hrs by Annexin V-FITC/PI staining based flow cytometry method relative to control; type: functional
[20] = Induction of apoptosis in mouse P815B cells assessed as early apoptotic cells at 5 uM measured after 24 hrs by Annexin V-FITC/PI staining based flow cytometry method relative to control; type: functional
[21] = Induction of apoptosis in mouse P815B cells assessed as late apoptotic cells at 5 uM measured after 24 hrs by Annexin V-FITC/PI staining based flow cytometry method relative to control; type: functional
[22] = Induction of apoptosis in mouse P815B cells assessed as necrotic cells at 5 uM measured after 24 hrs by Annexin V-FITC/PI staining based flow cytometry method relative to control; type: functional
[23] = Induction of apoptosis in mouse P815B cells assessed as viable cells at 10 uM measured after 24 hrs by Annexin V-FITC/PI staining based flow cytometry method relative to control; type: functional; details: read-out: Activity
[24] = Induction of apoptosis in mouse P815B cells assessed as early apoptotic cells at 10 uM measured after 24 hrs by Annexin V-FITC/PI staining based flow cytometry method relative to control; type: functional
[25] = Induction of apoptosis in mouse P815B cells assessed as late apoptotic cells at 10 uM measured after 24 hrs by Annexin V-FITC/PI staining based flow cytometry method relative to control; type: functional
[26] = Induction of apoptosis in mouse P815B cells assessed as necrotic cells at 10 uM measured after 24 hrs by Annexin V-FITC/PI staining based flow cytometry method relative to control; type: functional
[27] = Induction of apoptosis in mouse P815B cells assessed as apoptotic cells at 10 uM measured after 6 hrs by Annexin V-FITC/PI staining based flow cytometry method relative to control; type: functional
[28] = Induction of apoptosis in mouse P815B cells assessed as necrotic cells at 10 uM measured after 6 hrs by Annexin V-FITC/PI staining based flow cytometry method relative to control; type: functional
[29] = Induction of cell cycle arrest in mouse P815B cells assessed as accumulation of cells at G1 phase at 5 uM measured after 24 hrs by PI staining based flow cytometry method (reference value: 42.8%); type: functional
[30] = Induction of cell cycle arrest in mouse P815B cells assessed as accumulation of cells at S phase at 5 uM measured after 24 hrs by PI staining based flow cytometry method (reference value: 45.0%); type: functional
[31] = Induction of cell cycle arrest in mouse P815B cells assessed as accumulation of cells at G2 phase at 5 uM measured after 24 hrs by PI staining based flow cytometry method (reference value: 14.6%); type: functional

T1 sequence (P48775 whole entry): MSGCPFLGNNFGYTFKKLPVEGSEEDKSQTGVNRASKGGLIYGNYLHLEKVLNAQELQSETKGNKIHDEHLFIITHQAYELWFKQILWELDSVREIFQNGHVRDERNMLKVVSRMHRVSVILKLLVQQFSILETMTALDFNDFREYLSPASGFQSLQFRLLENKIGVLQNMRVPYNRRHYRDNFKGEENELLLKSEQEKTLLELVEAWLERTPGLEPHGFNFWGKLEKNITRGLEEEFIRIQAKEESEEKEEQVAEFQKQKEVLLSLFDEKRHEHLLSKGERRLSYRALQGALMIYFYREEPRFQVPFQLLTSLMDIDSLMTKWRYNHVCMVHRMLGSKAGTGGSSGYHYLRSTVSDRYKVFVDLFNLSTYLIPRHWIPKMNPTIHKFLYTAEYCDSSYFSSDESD
T2 sequence (P14902 whole entry): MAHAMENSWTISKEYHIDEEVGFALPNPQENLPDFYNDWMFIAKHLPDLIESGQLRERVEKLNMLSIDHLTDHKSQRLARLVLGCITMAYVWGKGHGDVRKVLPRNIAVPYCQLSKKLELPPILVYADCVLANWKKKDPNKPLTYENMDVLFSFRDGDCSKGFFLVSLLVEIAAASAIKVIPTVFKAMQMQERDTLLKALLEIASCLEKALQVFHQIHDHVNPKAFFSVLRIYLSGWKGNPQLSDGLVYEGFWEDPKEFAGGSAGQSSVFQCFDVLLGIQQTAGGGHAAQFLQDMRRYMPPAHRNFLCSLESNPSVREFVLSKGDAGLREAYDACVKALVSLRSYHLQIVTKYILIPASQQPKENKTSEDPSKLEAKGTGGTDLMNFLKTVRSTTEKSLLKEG

SMILES | IC50 [1] [µM] | IC50 [2] [µM] | IC50 [3] [µM] | IC50 [4] [µM] | logKw [5] | half-life at 10 µM [6] [min] | CC50 [7] [µM] | CC50 [8] [µM] | CC50 (A 172 [9]) [µM] | CC50 (A 172 [10]) [µM] | CC50 at 6 h [11] [µM] | CC50 at 24 h [12] [µM] | Activity (P815B [13]) | Activity (P815B [14]) | also measured
c1ccc2c(-c3ccc4nonc4c3)c[nH]c2c1 | 3.4 | 0.051 | > 100 | > 100 | 4.1 | 24.6 | 10 | 10 | 30 | 30 | > 80 | > 80 | – | – | –
c1ccc2c(-c3cnc4n[se]nc4c3)c[nH]c2c1 | 4.5 | 0.171 | > 100 | > 100 | 2.9 | 28.3 | > 80 | 30 | > 80 | > 80 | > 80 | > 80 | Toxic | Active | –
c1ccc2c(-c3cnc4nsnc4c3)c[nH]c2c1 | 4.7 | 0.082 | > 100 | > 100 | 3.3 | 22 | > 80 | 30 | > 80 | > 80 | > 80 | > 80 | Toxic | – | –
c1ccc2c(-c3ccc4n[se]nc4c3)c[nH]c2c1 | 2.5 | 0.094 | > 100 | > 100 | 3.5 | 70.2 | 30 | 3 | 30 | 30 | 30 | 10 | – | Active | viability at 5 µM [15]: 79.2%; viability at 1 µM [16]: 81%; Activity [17]: 1.15%; Activity [18]: 16.6%; Activity [19]: 1.24%; Activity [20]: 5.19%; Activity [21]: 14.2%; Activity [22]: 1.46%; viability at 10 µM [23]: 52.7%; Activity [24]: 2.64%; Activity [25]: 44.1%; Activity [26]: 0.55%; Activity [27]: 30.4%; Activity [28]: 27.6%; Activity [29]: 47.3%; Activity [30]: 41.3%; Activity [31]: 11.6%
c1ccc2c(-c3ccc4nsnc4c3)c[nH]c2c1 | 3 | 0.129 | > 100 | > 100 | 4 | 35.6 | 30 | 10 | 30 | 30 | > 80 | > 80 | – | – | –
